# Tests used:
# E. coli RNAP holoenzyme = E. coli RNAP holoenzyme (Escherichia coli, UniProt P0A8V2); experiment: Transcription assay, T7A1 promoter template, rifampicin inhibition of E. coli RNAP holoenzyme; format: biochemical; details: CpA primer, 37° C., read-out: Ki (estimated from the rifampicin concentration where the production of long transcripts was inhibited by 50%)
# Source text: (§1) FIG. 2a depicts autoradiographs showing the radioactive RNA produced by Taq (lanes 1-7) and E. coli (lanes 8-13) RNAP holoenzymes transcribing a template containing the T7 A1 promoter and the tR2 terminator, analyzed on a 15% polyacrylamide gel and quantitated by phosphorimagery. In the absence of rifampicin (lanes 1 and 8), the major RNA products from each RNAP correspond to a trimeric abortive product (CpApU), a 105 nucleotide terminated transcript (Term), and a 127 nucleotide runoff transcript (Run off). Lanes 2-7 and 9-13 show the effects of increasing concentrations of rifampicin. […] Rif-nucleotide compounds (Rif-(CH2)n-Ap) with different linker lengths, n (indicated above each lane) were bound to RNAP, then extended in a specific transcription reaction with α-[^32P]UTP by the RNAP catalytic activity. The products were analyzed on a 23% polyacrylamide gel, visualized by autoradiography, and quantitated by phosphorimagery.
# (§2) The transcription assay comparing rifampicin inhibition of E.coli and Taq RNAPs (FIG. 2a) was performed as previously described [Nudler et al., Science 265:793-796 (1994)]. Briefly, 0.1 pmol of purified Taq core RNAP [Zhang et al., Cell 98:811-824 (1999); U.S. Ser. No. 09/396,651, Filed Sep. […] Radioactive RNA products were analyzed on a 15% polyacrylamide sequencing gel.
# Taq RNAP holoenzyme = biological target: T1, Taq RNAP holoenzyme (Thermus aquaticus, UniProt Q9KWU7); experiment: Transcription assay, T7A1 promoter template, rifampicin inhibition of Taq RNAP holoenzyme; format: biochemical; details: CpA primer, 37° C., read-out: Ki (estimated from the rifampicin concentration where the production of long transcripts was inhibited by 50%)
# T1 construct: Taq core RNAP purified from Taq cells; made in house; host or cells: core: purified natively from Thermus aquaticus cells; σA: recombinant in E. coli
# Source text: as §1, §2
# Chain of E. coli RNAP holoenzyme (P0A8V2 whole entry): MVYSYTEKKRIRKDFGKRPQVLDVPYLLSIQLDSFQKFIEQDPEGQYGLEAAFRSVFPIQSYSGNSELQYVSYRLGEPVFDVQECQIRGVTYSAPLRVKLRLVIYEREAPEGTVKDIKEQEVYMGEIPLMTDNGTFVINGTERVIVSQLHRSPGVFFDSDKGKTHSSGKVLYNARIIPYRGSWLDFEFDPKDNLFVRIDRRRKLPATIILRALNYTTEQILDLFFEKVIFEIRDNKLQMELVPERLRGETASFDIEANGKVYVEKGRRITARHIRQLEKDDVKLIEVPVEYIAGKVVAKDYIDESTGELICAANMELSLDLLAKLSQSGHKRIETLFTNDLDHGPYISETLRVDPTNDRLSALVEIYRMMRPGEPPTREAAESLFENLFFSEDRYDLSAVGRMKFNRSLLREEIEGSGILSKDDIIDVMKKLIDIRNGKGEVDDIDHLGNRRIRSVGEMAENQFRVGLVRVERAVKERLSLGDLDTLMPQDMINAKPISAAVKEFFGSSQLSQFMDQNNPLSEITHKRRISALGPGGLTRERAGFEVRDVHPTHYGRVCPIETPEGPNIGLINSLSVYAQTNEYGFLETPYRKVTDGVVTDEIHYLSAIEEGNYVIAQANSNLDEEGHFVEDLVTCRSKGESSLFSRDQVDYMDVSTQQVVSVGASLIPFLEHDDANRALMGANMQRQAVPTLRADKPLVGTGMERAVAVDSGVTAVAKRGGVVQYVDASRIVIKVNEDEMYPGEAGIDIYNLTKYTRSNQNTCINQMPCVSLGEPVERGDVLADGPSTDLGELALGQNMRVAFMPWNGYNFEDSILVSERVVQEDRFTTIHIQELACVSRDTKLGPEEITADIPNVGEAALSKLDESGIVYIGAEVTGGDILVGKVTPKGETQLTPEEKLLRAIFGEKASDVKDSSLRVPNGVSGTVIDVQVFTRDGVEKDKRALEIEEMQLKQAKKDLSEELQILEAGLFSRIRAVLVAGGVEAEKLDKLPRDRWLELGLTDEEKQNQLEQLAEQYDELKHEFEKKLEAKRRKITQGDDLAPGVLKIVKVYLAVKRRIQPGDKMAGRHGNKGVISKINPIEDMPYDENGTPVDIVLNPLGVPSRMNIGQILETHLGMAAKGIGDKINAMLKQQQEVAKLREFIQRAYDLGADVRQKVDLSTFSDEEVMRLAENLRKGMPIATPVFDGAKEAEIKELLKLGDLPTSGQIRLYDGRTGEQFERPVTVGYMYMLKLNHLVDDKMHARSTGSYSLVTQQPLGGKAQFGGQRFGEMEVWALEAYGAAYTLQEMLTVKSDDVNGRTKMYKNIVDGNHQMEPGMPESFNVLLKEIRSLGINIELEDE
# Chain of E. coli RNAP holoenzyme (P0A8T7 whole entry partner): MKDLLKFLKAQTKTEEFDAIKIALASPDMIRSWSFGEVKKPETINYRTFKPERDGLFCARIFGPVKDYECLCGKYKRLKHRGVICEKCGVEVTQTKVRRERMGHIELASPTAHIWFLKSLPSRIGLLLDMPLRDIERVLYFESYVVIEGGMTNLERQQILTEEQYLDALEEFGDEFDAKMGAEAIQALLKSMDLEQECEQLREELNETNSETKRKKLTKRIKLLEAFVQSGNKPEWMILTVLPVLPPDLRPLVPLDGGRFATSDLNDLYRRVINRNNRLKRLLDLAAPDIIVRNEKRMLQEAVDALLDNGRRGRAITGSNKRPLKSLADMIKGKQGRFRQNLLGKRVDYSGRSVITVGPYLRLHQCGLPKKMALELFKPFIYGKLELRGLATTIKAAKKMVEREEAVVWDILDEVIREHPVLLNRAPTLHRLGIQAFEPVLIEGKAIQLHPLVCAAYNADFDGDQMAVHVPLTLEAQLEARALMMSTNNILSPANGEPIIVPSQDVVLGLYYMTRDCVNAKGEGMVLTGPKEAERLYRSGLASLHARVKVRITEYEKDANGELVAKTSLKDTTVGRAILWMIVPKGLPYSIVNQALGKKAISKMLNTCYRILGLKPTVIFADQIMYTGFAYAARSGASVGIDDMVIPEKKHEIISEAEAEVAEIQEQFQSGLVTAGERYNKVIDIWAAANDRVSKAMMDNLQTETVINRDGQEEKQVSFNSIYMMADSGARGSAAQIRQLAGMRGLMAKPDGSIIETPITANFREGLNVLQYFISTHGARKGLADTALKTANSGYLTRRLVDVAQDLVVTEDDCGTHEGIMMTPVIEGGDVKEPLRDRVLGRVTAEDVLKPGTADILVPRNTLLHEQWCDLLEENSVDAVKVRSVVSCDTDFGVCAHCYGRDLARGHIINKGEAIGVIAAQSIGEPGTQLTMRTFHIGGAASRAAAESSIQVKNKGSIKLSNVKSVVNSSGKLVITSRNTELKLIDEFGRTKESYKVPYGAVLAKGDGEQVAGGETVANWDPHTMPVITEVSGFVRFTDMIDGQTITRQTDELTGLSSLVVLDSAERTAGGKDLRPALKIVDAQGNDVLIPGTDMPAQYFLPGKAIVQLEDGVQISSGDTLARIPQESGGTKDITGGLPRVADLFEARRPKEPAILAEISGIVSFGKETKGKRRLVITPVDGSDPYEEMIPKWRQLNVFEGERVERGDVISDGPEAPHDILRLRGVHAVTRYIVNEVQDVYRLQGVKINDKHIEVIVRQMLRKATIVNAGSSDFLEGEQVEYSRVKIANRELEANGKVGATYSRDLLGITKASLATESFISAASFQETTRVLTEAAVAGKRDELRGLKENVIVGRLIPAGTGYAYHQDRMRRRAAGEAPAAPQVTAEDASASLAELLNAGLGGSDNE
# Chain of E. coli RNAP holoenzyme (P0A7Z4 whole entry partner): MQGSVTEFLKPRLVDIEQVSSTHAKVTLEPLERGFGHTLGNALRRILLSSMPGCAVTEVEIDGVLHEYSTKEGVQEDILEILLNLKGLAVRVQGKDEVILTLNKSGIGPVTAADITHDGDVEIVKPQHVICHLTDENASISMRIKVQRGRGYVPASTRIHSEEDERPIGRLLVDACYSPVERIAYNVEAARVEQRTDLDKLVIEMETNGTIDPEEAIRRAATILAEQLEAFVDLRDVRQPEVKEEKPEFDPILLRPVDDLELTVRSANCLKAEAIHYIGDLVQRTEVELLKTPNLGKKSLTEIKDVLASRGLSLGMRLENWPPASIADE
# Chain of E. coli RNAP holoenzyme (P0A800 whole entry partner): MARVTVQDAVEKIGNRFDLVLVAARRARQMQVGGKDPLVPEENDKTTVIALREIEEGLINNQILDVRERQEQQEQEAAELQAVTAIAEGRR
# Chain of E. coli RNAP holoenzyme (P00579 whole entry partner): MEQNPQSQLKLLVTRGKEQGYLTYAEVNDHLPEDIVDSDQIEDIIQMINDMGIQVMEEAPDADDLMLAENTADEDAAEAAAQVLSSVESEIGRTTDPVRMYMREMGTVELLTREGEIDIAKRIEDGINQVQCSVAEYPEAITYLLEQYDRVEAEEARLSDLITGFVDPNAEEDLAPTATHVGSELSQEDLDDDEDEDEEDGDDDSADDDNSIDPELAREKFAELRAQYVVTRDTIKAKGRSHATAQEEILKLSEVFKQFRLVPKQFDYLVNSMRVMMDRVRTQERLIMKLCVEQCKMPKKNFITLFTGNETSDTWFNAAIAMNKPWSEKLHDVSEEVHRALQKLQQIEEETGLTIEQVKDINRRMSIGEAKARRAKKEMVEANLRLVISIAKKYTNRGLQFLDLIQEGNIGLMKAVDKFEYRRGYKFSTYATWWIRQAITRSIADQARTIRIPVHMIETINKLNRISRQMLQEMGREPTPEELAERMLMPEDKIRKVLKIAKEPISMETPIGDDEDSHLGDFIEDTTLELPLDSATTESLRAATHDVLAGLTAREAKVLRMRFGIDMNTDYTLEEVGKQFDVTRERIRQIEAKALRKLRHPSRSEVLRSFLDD
smiles,measurement,setting,value
CO[C@H]1/C=C/O[C@@]2(C)Oc3c(C)c(O)c4c(O)c(c(/C=N/N5CCN(C)CC5)c(O)c4c3C2=O)NC(=O)/C(C)=C\C=C\[C@H](C)[C@H](O)[C@@H](C)[C@@H](O)[C@@H](C)[C@H](OC(C)=O)[C@@H]1C [rifampicin],Ki,E. coli RNAP holoenzyme,~0.1 µM
same,Ki,Taq RNAP holoenzyme,~10 µM
